Measured values: ChEMBL document CHEMBL1772960, “N,N'-methyleno-didemnin A from the ascidian Trididemnum solidum. Complete NMR assignments and confirmation of the imidazolidinone ring by strategic analysis of 1J(CH)” (J Nat Prod, 2011)
pIC50: −log10 of the molar value. *1 amine or outer side, *2 acyl side, *3 side chain or, on linkers, in order; H or OH if unused. Where a SMILES comes first, the peptide text is derived from it. Bridges are numbered along the chain shown (N, C = ends). [ ]: non-standard residue; d: D form. The star is where a group is joined. X1 = CC[C@H](C)[C@@H](N[*:1])[C@@H](O)CC(=O)O[C@H](C(=O)[C@H](C)C(=O)[*:2])C(C)C; NMeY = CN[C@@H](Cc1ccc(O)cc1)C(=O)O; NMeL = CN[C@@H](CC(C)C)C(=O)O; dNMeL = CN[C@H](CC(C)C)C(=O)O; Pyruvoyl = CC(=O)C(=O)*

System: HCT-116
Assay: Cytotoxicity against human HCT116 cells assessed as growth inhibition after 72 hrs by MTS assay
Format: functional, cell-based
Details: HCT-116, 72 h

SMILES | pIC50
CC[C@H](C)[C@H]1NC(=O)[C@@H](NC(=O)[C@H](CC(C)C)N(C)C(=O)[C@@H]2CCCN2C(=O)C(C)=O)[C@@H](C)OC(=O)[C@H](Cc2ccc(OC)cc2)N(C)C(=O)[C@@H]2CCCN2C(=O)[C@H](CC(C)C)NC(=O)[C@@H](C)C(=O)[C@H](C(C)C)OC(=O)C[C@@H]1O (Pyruvoyl-P[NMeL]T[X1]LP[NMeY](Me); ester 3-C) | 7.62
CC[C@H](C)[C@H]1NC(=O)[C@@H](NC(=O)[C@@H](CC(C)C)NC)[C@@H](C)OC(=O)[C@H](Cc2ccc(OC)cc2)N(C)C(=O)[C@@H]2CCCN2C(=O)[C@H](CC(C)C)NC(=O)[C@@H](C)C(=O)[C@H](C(C)C)OC(=O)C[C@@H]1O [DIDEMNIN A] (H-[dNMeL]T[X1]LP[NMeY](Me); ester 2-C) | 7.49
